# Data taken from patent US8242118B2, “Arylsulfonamide derivatives for use as CCR3 antagonists in the treatment of inflammatory and immunological disorders” (Axikin Pharmaceuticals Inc., priority 2001, dated 2012).
# pIC50: −log10 of the molar value.
# Assays:
# Human CCR3 = molecular target: T1, Human CCR3 (Homo sapiens, UniProt P51677); assay: Receptor binding assay (RBA), [125I]-eotaxin; details: human CCR3-transformed K562 cells, 0.1 nM [125I]-eotaxin; compounds of about 40 to 90% purity; read-out: Activity grade RBA (IC50 class)
# T1 construct: The cloned CCR3 cDNA was constructed with pcDNA3 vector and transfected into a IC562 cell line; expressed in transfected cells
# T1 sequence (P51677 1-355): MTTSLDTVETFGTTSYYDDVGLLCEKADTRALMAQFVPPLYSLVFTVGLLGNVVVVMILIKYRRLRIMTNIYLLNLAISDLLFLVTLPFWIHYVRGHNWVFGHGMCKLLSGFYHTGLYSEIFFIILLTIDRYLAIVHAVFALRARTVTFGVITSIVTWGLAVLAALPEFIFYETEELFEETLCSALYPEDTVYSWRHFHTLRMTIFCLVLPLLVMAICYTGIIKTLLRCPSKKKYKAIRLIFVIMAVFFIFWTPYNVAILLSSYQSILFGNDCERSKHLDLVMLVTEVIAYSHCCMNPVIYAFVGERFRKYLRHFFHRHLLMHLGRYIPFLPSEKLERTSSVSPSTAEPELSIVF
# Outline: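 Butyrate-pretreated (5 mM, 20-24 h) CCR3-transfected K562 cells incubated 1 h at room temperature with compound and 0.1 nM final [125I]-eotaxin in HEPES pH 7.6 buffer; bound radioactivity counted after filtration. Non-specific binding with 500 nM unlabeled eotaxin; IC50 from inhibition curve.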
SMILES,pIC50 (Human CCR3),melting point
Cc1ccccc1Nc1ccc([N+](=O)[O-])cc1S(=O)(=O)N1CCNCC1 [Example 3-3],5.00 to 6.00,–
Cc1cccc(Nc2ccc([N+](=O)[O-])cc2S(=O)(=O)N2CCNCC2)c1 [Example 3-4],5.00 to 6.00,–
Cc1ccc(Nc2ccc([N+](=O)[O-])cc2S(=O)(=O)N2CCNCC2)cc1 [Example 3-5],< 5.00,–
O=[N+]([O-])c1ccc(Nc2ccccc2Cl)c(S(=O)(=O)N2CCNCC2)c1 [Example 3-6],< 5.00,–
Cc1cc(C)cc(Oc2ccc([N+](=O)[O-])cc2S(=O)(=O)NCCN2CCOCC2)c1 [Example 4-3],5.00 to 6.00,–
Cc1cc(C)cc(Oc2ccc([N+](=O)[O-])cc2S(=O)(=O)N2CCN(c3ccccc3)CC2)c1 [Example 4-7],< 5.00,168 to 169 °C
Cc1ccc(N2CCN(S(=O)(=O)c3cc([N+](=O)[O-])ccc3Oc3cc(C)cc(C)c3)CC2)cc1 [Example 4-8],< 5.00,168 to 170 °C
CCC(C)N1CCN(S(=O)(=O)c2cc([N+](=O)[O-])ccc2Oc2cc(C)cc(C)c2)CC1 (stereo not drawn) [Example 4-16],> 6.00,134 to 135 °C
CCCC(C)N1CCN(S(=O)(=O)c2cc([N+](=O)[O-])ccc2Oc2cc(C)cc(C)c2)CC1 (stereo not drawn) [Example 4-17],> 6.00,93 to 95 °C
CCC(CC)N1CCN(S(=O)(=O)c2cc([N+](=O)[O-])ccc2Oc2cc(C)cc(C)c2)CC1 [Example 4-18],> 6.00,131 to 132 °C
Cc1cc(C)cc(Oc2ccc([N+](=O)[O-])cc2S(=O)(=O)N2CCN(C3CCCC3)CC2)c1 [Example 4-19],> 6.00,169 to 171 °C
CN(C)CCN(C)S(=O)(=O)c1cc([N+](=O)[O-])ccc1Oc1cc(Cl)cc(Cl)c1 [Example 4-20],> 6.00,105 to 107 °C
CCN(CC)C1CCN(S(=O)(=O)c2cc([N+](=O)[O-])ccc2Oc2cc(Cl)cc(Cl)c2)C1 (stereo not drawn) [Example 4-21],> 6.00,120 to 121 °C
O=[N+]([O-])c1ccc(Oc2cc(Cl)cc(Cl)c2)c(S(=O)(=O)N2CCC[C@H]2CN2CCCC2)c1 [Example 4-22],> 6.00,200 to 202 °C
CN1CCC(N(C)S(=O)(=O)c2cc([N+](=O)[O-])ccc2Oc2cc(Cl)cc(Cl)c2)C1 (stereo not drawn) [Example 4-23],> 6.00,–
Cc1cc(C)cc(Oc2ccc([N+](=O)[O-])cc2S(=O)(=O)N2CCC(N(C)C)CC2)c1.Cl [Example 4-24],> 6.00,262 to 264 °C
Cc1cc(C)cc(Oc2ccc([N+](=O)[O-])cc2S(=O)(=O)N2CCN(CC3CCCO3)CC2)c1 (stereo not drawn) [Example 4-26],> 6.00,178 to 179 °C
O=[N+]([O-])c1ccc(Oc2cc(Cl)cc(Cl)c2)c(S(=O)(=O)N2CCN(CC3CCCO3)CC2)c1 (stereo not drawn) [Example 4-27],> 6.00,182 to 183 °C
O=[N+]([O-])c1ccc(Oc2cc(Cl)cc(Cl)c2)c(S(=O)(=O)N2CCC(N3CCCCC3)CC2)c1 [Example 4-29],> 6.00,173 to 174 °C
Cc1cc(C)cc(Oc2ccc([N+](=O)[O-])cc2S(=O)(=O)N2CCN(CCC(F)(F)F)CC2)c1 [Example 4-33],> 6.00,–
O=[N+]([O-])c1ccc(Oc2cc(Cl)cc(Cl)c2)c(S(=O)(=O)N2CCN(CCC(F)(F)F)CC2)c1 [Example 4-34],> 6.00,166 to 167 °C
O=[N+]([O-])c1ccc(Oc2cc(Cl)cc(Cl)c2)c(S(=O)(=O)N2CCC(N3CCCC3)C2)c1 (stereo not drawn) [Example 4-38],> 6.00,–
CC(=O)Nc1ccc(Oc2cc(C)cc(C)c2)c(S(=O)(=O)N2CCNCC2)c1 [Example 7-2],< 5.00,–
Cc1cc(C)cc(Oc2ccc(NC(=O)C(C)(C)C)cc2S(=O)(=O)N2CCNCC2)c1 [Example 7-3],< 5.00,–
Cc1cc(C)cc(Oc2ccc(NC(=O)CC(C)C)cc2S(=O)(=O)N2CCNCC2)c1 [Example 7-4],< 5.00,–
Cc1cc(C)cc(Oc2ccc(NC(=O)c3ccccc3)cc2S(=O)(=O)N2CCNCC2)c1 [Example 7-5],< 5.00,–
Cc1ccc(C(=O)Nc2ccc(Oc3cc(C)cc(C)c3)c(S(=O)(=O)N3CCNCC3)c2)cc1 [Example 7-6],< 5.00,–
Cc1cc(C)cc(Oc2ccc(NC(=O)c3cccc4ccccc34)cc2S(=O)(=O)N2CCNCC2)c1 [Example 7-7],< 5.00,–
Cc1cc(C)cc(Oc2ccc(NC(=O)CCc3ccccc3)cc2S(=O)(=O)N2CCNCC2)c1 [Example 7-8],< 5.00,–
Cc1cc(C)cc(Oc2ccc(NC(=O)c3cccs3)cc2S(=O)(=O)N2CCNCC2)c1 [Example 7-9],< 5.00,–

# Other lines, results leading:
pIC50 (Human CCR3),melting point,SMILES
> 6.00,191 to 192 °C,O=[N+]([O-])c1ccc(Sc2cc(Cl)cc(Cl)c2)c(S(=O)(=O)N2CCC(N3CCCCC3)CC2)c1 [Example 2-3]
> 6.00,270 °C,Cl.N[C@@H]1CCN(S(=O)(=O)c2cc([N+](=O)[O-])ccc2Sc2cc(Cl)cc(Cl)c2)C1 [Example 2-11]
> 6.00,263 °C,N[C@H]1CCN(S(=O)(=O)c2cc([N+](=O)[O-])ccc2Sc2cc(Cl)cc(Cl)c2)C1 [Example 2-12]
> 6.00,–,CC1CCCCN1CCCNS(=O)(=O)c1cc([N+](=O)[O-])ccc1Sc1cc(Cl)cc(Cl)c1 (stereo not drawn) [Example 2-13]
> 6.00,213 °C,O=[N+]([O-])c1ccc(Sc2cc(Cl)cc(Cl)c2)c(S(=O)(=O)N2CCC(N3CCCC3)CC2)c1 [Example 2-22]
> 6.00,102 °C,CN(C)CCN(C)S(=O)(=O)c1cc([N+](=O)[O-])ccc1Sc1cc(Cl)cc(Cl)c1 [Example 2-23]
> 6.00,–,O=[N+]([O-])c1ccc(Sc2cc(Cl)cc(Cl)c2)c(S(=O)(=O)NCCN2CCCCC2)c1 [Example 2-24]
> 6.00,–,O=[N+]([O-])c1ccc(Nc2cc(Cl)cc(Cl)c2)c(S(=O)(=O)N2CCNCC2)c1 [Example 3-2]
> 6.00,–,Cc1cc(C)cc(Oc2ccc([N+](=O)[O-])cc2S(=O)(=O)NCCN2CCCCC2)c1 [Example 4-2]
> 6.00,131 to 132 °C,Cc1cc(C)cc(Oc2ccc([N+](=O)[O-])cc2S(=O)(=O)N2CCN(C)CC2)c1 [Example 4-4]
> 6.00,111 to 112 °C,CCN1CCN(S(=O)(=O)c2cc([N+](=O)[O-])ccc2Oc2cc(C)cc(C)c2)CC1 [Example 4-5]
> 6.00,190 to 192 °C,Cc1cc(C)cc(Oc2ccc([N+](=O)[O-])cc2S(=O)(=O)N2CCN(C3CCCCC3)CC2)c1 [Example 4-6]
> 6.00,86 to 88 °C,CCN1CCC(N(CC)S(=O)(=O)c2cc([N+](=O)[O-])ccc2Oc2cc(C)cc(C)c2)C1 (stereo not drawn) [Example 4-12]
> 6.00,115 to 116 °C,Cc1cc(C)cc(Oc2ccc([N+](=O)[O-])cc2S(=O)(=O)N2CC[C@@H](N(C)C)C2)c1 [Example 4-13]
> 6.00,75 to 77 °C,Cc1cc(C)cc(Oc2ccc([N+](=O)[O-])cc2S(=O)(=O)N(C)CCN(C)C)c1 [Example 4-14]
> 6.00,129 to 131 °C,Cc1cc(C)cc(Oc2ccc([N+](=O)[O-])cc2S(=O)(=O)N2CCN(C(C)C)CC2)c1 [Example 4-15]
